# B1: Human EPO mmRNA (nucleic acid, listed as Homo sapiens)
# sense: GGGAAAUAAGAGAGAAAAGAAGAGUAAGAAGAAAUAUAAGAGCCACCAUGGGAGUGCACGAGUGUCCCGCGUGGUUGUGGUUGCUGCUGUCGCUCUUGAGCCUCCCACUGGGACUGCCUGUGCUGGGGGCACCACCCAGAUUGAUCUGCGACUCACGGGUACUUGAGAGGUACCUUCUUGAAGCCAAAGAAGCCGAAAACAUCACAACCGGAUGCGCCGAGCACUGCUCCCUCAAUGAGAACAUUACUGUACCGGAUACAAAGGUCAAUUUCUAUGCAUGGAAGAGAAUGGAAGUAGGACAGCAGGCCGUCGAAGUGUGGCAGGGGCUCGCGCUUUUGUCGGAGGCGGUGUUGCGGGGUCAGGCCCUCCUCGUCAACUCAUCACAGCCGUGGGAGCCCCUCCAACUUCAUGUCGAUAAAGCGGUGUCGGGGCUCCGCAGCUUGACGACGUUGCUUCGGGCUCUGGGCGCACAAAAGGAGGCUAUUUCGCCGCCUGACGCGGCCUCCGCGGCACCCCUCCGAACGAUCACCGCGGACACGUUUAGGAAGCUUUUUAGAGUGUACAGCAAUUUCCUCCGCGGAAAGCUGAAAUUGUAUACUGGUGAAGCGUGUAGGACAGGGGAUCGCUGAUAAGCUGCCUUCUGCGGGGCUUGCCUUCUGGCCAUGCCCUUCUUCUCUCCCUUGCACCUGUACCUCUUGGUCUUUGAAUAAAGCCUGAGUAGGAAG
# modifications: 5' Cap1, polyA tail ~160 nt
# Key:
# Balb-C mice [1] = assay: Lipoplex study, whole-body flux (Table 129); format: in vivo, mouse; settings: lipoplexed luciferase mRNA, 0.10 mg/kg
# Method: (§1) The formulation was administered intravenously (I.V.), intramuscularly (I.M.) or subcutaneously (S.C.) to Balb-C mice at a dose of 0.10 mg/kg.
# (§2) Twenty minutes prior to imaging, mice were injected intraperitoneally with a D-luciferin solution at 150 mg/kg. Animals were then anesthetized and images were acquired with an IVIS Lumina II imaging system (Perkin Elmer). Bioluminescence was measured as total flux (photons/second) of the entire mouse. The mice were imaged at 8 hours, 24 hours and 48 hours after dosing and the average total flux (photons/second) was measured for each route of administration and chemical modification. The background signal was about 3.91E+05 p/s. Organs were imaged at 6 hours and the average total flux (photons/second) was measured for the liver, spleen, lung and kidney. A control for each organ was also analyzed.
# HeLa cells = assay: Chemical modifications on luciferase mRNA, HeLa transfection (RLU); format: cell-based; settings: 83 ng luciferase mRNA, 18 to 22 hours
# Method: The day before transfection, 20,000 HeLa cells (ATCC no. CCL-2; Manassas, Va.) were harvested by treatment with Trypsin-EDTA solution (Life Technologies, Grand Island, N.Y.) and seeded in a total volume of 100 ul EMEM medium (supplemented with 10% FCS and 1× Glutamax) per well in a 96-well cell culture plate (Corning, Manassas, Va.). The cells were grown at 37° C. in 5% CO2 atmosphere overnight. […] Lipofectamine 2000 (LifeTechnologies, Grand Island, N.Y.) was used as transfection reagent and 0.2 ul were diluted in 10 ul final volume of OPTI-MEM. After 5 minutes of incubation at room temperature, both solutions were combined and incubated an additional 15 minute at room temperature. Then the 20 ul combined solution was added to the 100 ul cell culture medium containing the HeLa cells and incubated at room temperature.
# After 18 to 22 hours of incubation cells expressing luciferase were lysed with 100 ul of Passive Lysis Buffer (Promega, Madison, Wis.) according to manufacturer instructions. Aliquots of the lysates were transferred to white opaque polystyrene 96-well plates (Corning, Manassas, Va.) and combined with 100 ul complete luciferase assay solution (Promega, Madison, Wis.). […] The plate reader was a BioTek Synergy H1 (BioTek, Winooski, Vt.). The background signal of the plates without reagent was about 200 relative light units per well.
# Balb-C mice [2] = assay: Intramuscular and subcutaneous administration of modified luciferase mRNA in PBS (whole-body flux); format: in vivo, mouse
# Method: The mice were imaged at 2 hours, 8 hours, 24 hours, 48 hours, 72 hours, 96 hours, 120 hours and 144 hours for intramuscular delivery and 2 hours, 8 hours, 24 hours, 48 hours, 72 hours, 96 hours and 120 hours for subcutaneous delivery. Twenty minutes prior to imaging, mice were injected intraperitoneally with a D-luciferin solution at 150 mg/kg. Animals were then anesthetized and images were acquired with an IVIS Lumina II imaging system (Perkin Elmer). Bioluminescence was measured as total flux (photons/second) of the entire mouse. The average total flux (photons/second) for intramuscular administration is shown in Table 113 and the average total flux (photons/second) for subcutaneous administration is shown in Table 114. The background signal was 3.79E+05 (p/s). The peak expression for intramuscular administration was seen between 24 and 48 hours for all chemistry and expression was still detected at 144 hours.
# [3] = system: liver, spleen, lung and kidney; assay: Lipoplex study, organ flux at 6 hours (Table 130); format: in vivo, mouse; settings: lipoplexed luciferase mRNA, 0.10 mg/kg
# Method: as §1, §2
# human EPO [4] = assay: Example 43 multi-dose/multi-administration IM, serum human EPO; format: in vivo, Sprague-Dawley rats; settings: rat serum 13 h post I.M.
# Method: The dosing vehicle (F. buffer) was used as a control.
# Animals (n=5), Sprague-Dawley rats, were injected IM (intramuscular) for the single unit dose of 100 ug (delivered to one thigh). For multi-dosing 6 doses of 100 ug (delivered to two thighs) were used for both EPO and G-CSF mmRNA. Control dosing involved use of buffer at a single dose. Human EPO blood levels were evaluated 13 hrs post injection.
# Human EPO protein was measured in rat serum 13 h post I.M. Five groups of rats were treated and evaluated.
# human EPO [5] = assay: Example 48 split dose study IM, serum human EPO, product per unit drug and dose splitting factor; format: in vivo, mice; settings: for Avg. pmol/mL human EPO: serum 13 h
# Method: The dosing vehicle (F. buffer) consisted of 150 mM NaCl, 2 mM CaCl2, 2 mM Nat phosphate (1.4 mM monobasic sodium phosphate; 0.6 mM dibasic sodium phosphate), and 0.5 mM EDTA, pH 6.5. The pH was adjusted using sodium hydroxide and the final solution was filter sterilized.
# Animals (n=5) were injected IM (intramuscular) for the single unit dose of 100 ug. For multi-dosing, two schedules were used, 3 doses of 100 ug and 6 doses of 100 ug. For the split dosing scheme, two schedules were used, 3 doses at 33.3 ug and 6 doses of 16.5 ug mmRNA. Control dosing involved use of buffer only at 6 doses. […] Blood and muscle tissue were evaluated 13 hrs post injection.
# Human EPO protein was measured in mouse serum 13 h post I.M. single, multi- or split dosing of the EPO mmRNA in buffer. Seven groups of mice (n=5 mice per group) were treated and evaluated.
# The splitting factor is defined as the product per unit drug divided by the single dose product per unit drug (PUD). For example for treatment group 2 the value 0.28 or product (EPO) per unit drug (mmRNA) is divided by the single dose product per unit drug of 0.14. The result is 2. Likewise, for treatment group 4, the value 1.1 or product (EPO) per unit drug (mmRNA) is divided by the single dose product per unit drug of 0.14. The result is 7.9. Consequently, the dose splitting factor (DSF) may be used as an indicator of the efficacy of a split dose regimen. For any single administration of a total daily dose, the DSF should be equal to 1. Therefore any DSF greater than this value in a split dose regimen is an indication of increased efficacy.
molecule,measurement,setting,value
"5mC/pU: Luciferase mRNA SEQ ID NO: 16, polyA about 140, fully modified with 5-methylcytosine and pseudouridine",Flux,"Balb-C mice [1]; I.M., 8 hrs",1.90E+06 p/s
same,Flux,"Balb-C mice [1]; I.M., 24 hrs",9.33E+05 p/s
same,Flux,"Balb-C mice [1]; I.M., 48 hrs",8.51E+05 p/s
same,Flux,"Balb-C mice [1]; I.V., 8 hrs, background about 3.91E+05 p/s",5.76E+06 p/s
same,Flux,"Balb-C mice [1]; I.V., 24 hrs",1.02E+06 p/s
same,Flux,"Balb-C mice [1]; I.V., 48 hrs",4.53E+05 p/s
same,Flux,"Balb-C mice [1]; S.C., 8 hrs",2.85E+06 p/s
same,Flux,"Balb-C mice [1]; S.C., 24 hrs",6.66E+05 p/s
same,Flux,"Balb-C mice [1]; S.C., 48 hrs",3.24E+05 p/s
same,RLU,HeLa cells,1601234 RLU
same,Flux,"Balb-C mice [2]; Balb-C mice, intramuscular 2.5 mg/kg in PBS, 2 hours",1.98E+07 p/s
same,Flux,"Balb-C mice [2]; Balb-C mice, subcutaneous 2.5 mg/kg in PBS, 2 hours",5.26E+06 p/s
same,Flux,"Balb-C mice [2]; intramuscular 2.5 mg/kg, 8 hours",1.42E+07 p/s
same,Flux,"Balb-C mice [2]; intramuscular 2.5 mg/kg, 24 hours",2.92E+07 p/s
same,Flux,"Balb-C mice [2]; intramuscular 2.5 mg/kg, 48 hours",2.64E+07 p/s
same,Flux,"Balb-C mice [2]; intramuscular 2.5 mg/kg, 72 hours",2.18E+07 p/s
same,Flux,"Balb-C mice [2]; intramuscular 2.5 mg/kg, 96 hours",2.75E+07 p/s
same,Flux,"Balb-C mice [2]; intramuscular 2.5 mg/kg, 120 hours",2.19E+07 p/s
same,Flux,"Balb-C mice [2]; intramuscular 2.5 mg/kg, 144 hours",9.17E+06 p/s
same,Flux,"Balb-C mice [2]; subcutaneous 2.5 mg/kg, 8 hours",2.32E+06 p/s
same,Flux,"Balb-C mice [2]; subcutaneous 2.5 mg/kg, 24 hours",2.67E+06 p/s
same,Flux,"Balb-C mice [2]; subcutaneous 2.5 mg/kg, 48 hours",1.22E+06 p/s
same,Flux,"Balb-C mice [2]; subcutaneous 2.5 mg/kg, 72 hours",1.12E+06 p/s
same,Flux,"Balb-C mice [2]; subcutaneous 2.5 mg/kg, 96 hours",5.16E+05 p/s
same,Flux,"Balb-C mice [2]; subcutaneous 2.5 mg/kg, 120 hours",3.80E+05 p/s
same,Inj. Site Flux,[3]; I.M.,1.15E+06 p/s
same,Kidney Flux,[3]; I.M.,1.44E+04 p/s
same,Liver Flux,[3]; I.M.,2.46E+04 p/s
same,Lung Flux,[3]; I.M.,1.50E+04 p/s
same,Spleen Flux,[3]; I.M.,1.38E+04 p/s
same,Kidney Flux,[3]; I.V.,1.77E+04 p/s
same,Liver Flux,[3]; I.V.,5.26E+05 p/s
same,Lung Flux,[3]; I.V.,4.28E+06 p/s
same,Spleen Flux,[3]; I.V.,2.04E+07 p/s
same,Inj. Site Flux,[3]; S.C.,4.46E+04 p/s
same,Kidney Flux,[3]; S.C.,1.69E+04 p/s
same,Liver Flux,[3]; S.C.,1.55E+04 p/s
same,Lung Flux,[3]; S.C.,1.45E+04 p/s
same,Spleen Flux,[3]; S.C.,1.67E+04 p/s
"Unmodified Luciferase: unmodified luciferase mRNA SEQ ID NO: 16, polyA about 140, Cap1",RLU,HeLa cells,33980 RLU
B1,Avg. human EPO,"human EPO [4]; 1 × 100 ug, total dose 100 ug",143 pg/mL
same,Avg. human EPO,"human EPO [4]; 6 × 100 ug, total dose 600 ug",256 pg/mL
same,Dose Splitting Factor,"human EPO [5]; 1 × 100 ug, total 100 ug",1
same,Polypeptide per unit drug,"human EPO [5]; 1 × 100 ug, total 100 ug",0.14 pmol/µg
same,Avg. pmol/mL human EPO,"human EPO [5]; 1 × 100 ug, total 100 ug",14.3 pmol/mL
same,Dose Splitting Factor,"human EPO [5]; 3 × 33.3 ug, total 100 ug",7.9
same,Polypeptide per unit drug,"human EPO [5]; 3 × 33.3 ug, total 100 ug",1.1 pmol/µg
same,Avg. pmol/mL human EPO,"human EPO [5]; 3 × 33.3 ug, total 100 ug",104.7 pmol/mL
same,Dose Splitting Factor,"human EPO [5]; 3 × 100 ug, total 300 ug",2
same,Polypeptide per unit drug,"human EPO [5]; 3 × 100 ug, total 300 ug",0.28 pmol/µg
same,Avg. pmol/mL human EPO,"human EPO [5]; 3 × 100 ug, total 300 ug",82.5 pmol/mL
same,Dose Splitting Factor,"human EPO [5]; 6 × 16.5 ug, total 100 ug",9.3
same,Polypeptide per unit drug,"human EPO [5]; 6 × 16.5 ug, total 100 ug",1.3 pmol/µg
same,Avg. pmol/mL human EPO,"human EPO [5]; 6 × 16.5 ug, total 100 ug",127.9 pmol/mL
same,Dose Splitting Factor,"human EPO [5]; 6 × 100 ug, total 600 ug",3.3
same,Polypeptide per unit drug,"human EPO [5]; 6 × 100 ug, total 600 ug",0.46 pmol/µg
same,Avg. pmol/mL human EPO,"human EPO [5]; 6 × 100 ug, total 600 ug",273.0 pmol/mL

# — patent publication US20160193299A1, “MODIFIED NUCLEOSIDE, NUCLEOTIDE, AND NUCLEIC ACID COMPOSITIONS” (Moderna Therapeutics, Inc., priority 2011, published 2016)
